Source: paper PMC9628821, “Discovery of Chitin Deacetylase Inhibitors through Structure-Based Virtual Screening and Biological Assays” (Journal of Microbiology and Biotechnology, 2022)

T1: AnCDA (Aspergillus nidulans chitin deacetylase) (Aspergillus nidulans, UniProt Q5AQQ0)
T1 construct: gene cda; recombinant AnCDA (GenBank XM_677557.1), expressed in Pichia pastoris, His-tag purified
T1 sequence (Q5AQQ0 19-237): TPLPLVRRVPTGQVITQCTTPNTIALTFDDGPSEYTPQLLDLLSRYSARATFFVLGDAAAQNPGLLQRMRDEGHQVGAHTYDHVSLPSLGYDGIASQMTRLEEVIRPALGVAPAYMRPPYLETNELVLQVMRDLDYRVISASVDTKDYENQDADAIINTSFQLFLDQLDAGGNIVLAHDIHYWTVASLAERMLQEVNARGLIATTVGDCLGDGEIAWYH

B1: AnCDA (Aspergillus nidulans chitin deacetylase) (Aspergillus nidulans FGSC A4) (protein)
chain: T1 sequence (Q5AQQ0 19-237)
notes: recombinant AnCDA (GenBank XM_677557.1), expressed in Pichia pastoris, His-tag purified

How the values were obtained:
[1] = target: T1, AnCDA (Aspergillus nidulans chitin deacetylase); assay: acetate release assay on (GlcNAc)[…] with purified AnCDA; Dixon plot Ki (abstract also gives IC50 […]); type: biochemical
[2] = substrate: CC(=O)N[C@H]1[C@H](O[C@H]2[C@H](O)[C@@H](NC(C)=O)[C@H](O[C@H]3[C@H](O)[C@@H](NC(C)=O)C(O)O[C@@H]3CO)O[C@@H]2CO)O[C@H](CO)[C@@H](O[C@@H]2O[C@H](CO)[C@@H](O[C@@H]3O[C@H](CO)[C@@H](O)[C@H](O)[C@H]3NC(C)=O)[C@H](O)[C@H]2NC(C)=O)[C@@H]1O; assay: enzyme kinetics (Km) by acetate release assay; type: biochemical, Aspergillus nidulans; conditions: Co2+ ([…] CoCl2 in assay) active site

| Molecule | Ki [1] | Km [2] |
| --- | --- | --- |
| Cc1ccc(-c2nc(CNC(=O)c3cccnc3Cl)no2)cc1 [J075-4187] | 31.6 µM |  |
| B1 |  | 72 µM |
